# From PMC3897205 (Bioorganic & medicinal chemistry letters, 2012)
# Key:
# hM1 [1] = molecular target: T1, hM1 (Homo sapiens, UniProt P11229); assay: [3H]NMS radioligand displacement at hM1 under equilibrium conditions; type: binding
# T1 sequence (P11229 1-460): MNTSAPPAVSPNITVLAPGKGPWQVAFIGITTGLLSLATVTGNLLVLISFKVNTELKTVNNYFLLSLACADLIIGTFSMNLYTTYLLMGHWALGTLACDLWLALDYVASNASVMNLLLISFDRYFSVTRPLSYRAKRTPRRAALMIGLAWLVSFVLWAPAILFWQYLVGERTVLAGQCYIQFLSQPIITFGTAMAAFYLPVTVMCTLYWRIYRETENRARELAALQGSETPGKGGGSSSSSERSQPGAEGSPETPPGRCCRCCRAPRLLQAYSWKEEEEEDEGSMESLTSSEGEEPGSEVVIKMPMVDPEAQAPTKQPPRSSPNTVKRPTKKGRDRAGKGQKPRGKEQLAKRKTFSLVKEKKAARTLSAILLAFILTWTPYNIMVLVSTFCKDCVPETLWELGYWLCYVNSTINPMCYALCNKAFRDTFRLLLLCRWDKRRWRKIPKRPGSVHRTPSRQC
# M1 = molecular target: T2, M1 (Homo sapiens, UniProt P11229); assay: Schild analysis, calcium mobilization in M1-expressing CHO cells; type: cell-based; details: for Schild regression slope: antagonism of ACh, mean ± S.E.M. of three experiments in triplicate; for mode of antagonism of M1 response to ACh: calcium mobilization assay
# T2 sequence (P11229 1-460): T1 sequence (P11229 1-460)
# hM1 [2] = molecular target: T1, hM1; type: cell-based; details: for hM1 antagonist activity in words: SAR discussion of Table 1 analogs; for change in hM1 antagonist potency relative to a comparator compound: fold change in words
SMILES,hM1 antagonist activity in words (hM1 [2]),change in hM1 antagonist potency relative to a comparator compound (hM1 [2]),also measured
"CN1CCN(C(=O)[C@@](F)(Cc2ccccc2)c2ccccc2)CC1 (single isomer, unassigned) [Compound 8f]",,,"displacement of radiolabeled NMS (hM1 [1]): completely displace radiolabeled NMS; Schild regression slope (M1): 1.07 ± 0.02; mode of antagonism of M1 response to ACh (M1): competitively antagonizes M1 response to ACh in a concentration-dependent manner; selectivity for hM1 (hM1 [2]; against hM1-5, calcium mobilization assay): modest selectivity for hM1"
CN1CCN(C(=O)C(Cc2ccccc2)c2ccccc2)CC1 (centres unmarked) [Compound 4],,roughly fourfold improvement in antagonist potency,
CCN1CCN(C(=O)C(Cc2ccccc2)c2ccccc2)CC1 (centres unmarked) [Compound 5a],,sixfold drop in potency,
O=C(C(Cc1ccccc1)c1ccccc1)N1CCNCC1 (centres unmarked) [Compound 5d],loss of activity,,
CCN1CCN(C(=O)C(Cc2ccccc2)c2ccccc2)CC1C (centres unmarked) [Compound 5f],,increase potency roughly sixfold,
CCN1CCN(C(=O)C(Cc2ccccc2)c2ccccc2)CC1(C)C (centres unmarked) [Compound 5g],,increase potency roughly sixfold,
CN(C)CCNC(=O)C(Cc1ccccc1)c1ccccc1 (centres unmarked) [Compound 5m],large losses in potency,,
CN(C)CCN(C)C(=O)C(Cc1ccccc1)c1ccccc1 (centres unmarked) [Compound 5n],large losses in potency,,
O=C(C(Cc1ccccc1)c1ccccc1)N1CCN(c2ccncc2)CC1 (centres unmarked) [Compound 5s],minimal antagonist activity,,
O=C(C(Cc1ccccc1)c1ccccc1)N1CC[C@H]2CCCN2CC1 (some centres unmarked) [Compound 5y],retained moderate potency,,
O=C(C(Cc1ccccc1)c1ccccc1)N1CCCNCC1 (centres unmarked) [Compound 5z],nearly complete loss of activity,,

# The next lines start with results.
hM1 antagonist activity in words (hM1 [2]),change in hM1 antagonist potency relative to a comparator compound (hM1 [2]),SMILES,also measured
moderate improvement in potency,,"CN1CCN(C(=O)[C@H](Cc2ccccc2)c2ccccc2)CC1 (single isomer, unassigned) [Compound 6]",displacement of radiolabeled NMS (hM1 [1]): completely displace radiolabeled NMS; Schild regression slope (M1): 0.97 ± 0.02; mode of antagonism of M1 response to ACh (M1): competitively antagonizes M1 response to ACh in a concentration-dependent manner
,only a minor potency decrease,CC(C)N1CCN(C(=O)C(Cc2ccccc2)c2ccccc2)CC1 (centres unmarked) [Compound 5b],
nearly abolished antagonist activity,,CC(C)CN1CCN(C(=O)C(Cc2ccccc2)c2ccccc2)CC1 (centres unmarked) [Compound 5c],
only modest activity,,C[N+]1(C)CCN(C(=O)C(Cc2ccccc2)c2ccccc2)CC1 (centres unmarked) [Compound 5h],
significant drop in potency,,COCCN1CCN(C(=O)C(Cc2ccccc2)c2ccccc2)CC1 (centres unmarked) [Compound 5r],
complete loss of activity,,O=C(C(Cc1ccccc1)c1ccccc1)N1CCN(CC(F)(F)F)CC1 (centres unmarked) [Compound 5t],
,only a twofold decrease in potency,CN1CCCN(C(=O)C(Cc2ccccc2)c2ccccc2)CC1 (centres unmarked) [Compound 5u],
,roughly equipotent with 4,CCN1CCCN(C(=O)C(Cc2ccccc2)c2ccccc2)CC1 (centres unmarked) [Compound 5v],
retained moderate potency,,CC(C)N1CCCN(C(=O)C(Cc2ccccc2)c2ccccc2)CC1 (centres unmarked) [Compound 5w],
